Each structure is given as a SMILES string.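 Five concentrations, 48 hours, 96-well plates. Here, GI50 denotes the concentration required for 50% inhibition of growth.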 Active and inactive are the calls of the source. No stated cut-off is given here; in the data, active = GI50 up to about 1.1 µM and inactive = higher.

Test systems include SW-620; SK-MEL-5; IGROV-1; RPMI-8226; Hs-578T; HCT-116; UO-31; BT-549; MDA-MB-435; ACHN; SF-268; UACC-257; M14; NCI-H226; SK-MEL-2; SK-MEL-28; HT-29; HL-60; HCC 2998; EKVX.
Holding throughout (assay): NCI anticancer screen, dose series, 48 h

In the case of `O=C(O)CCC1COc2ccccc2O1` (stereo not given), the GI50 with SW-620, in the test on SK-MEL-5, in the test on IGROV-1, with RPMI-8226, in the test with Hs-578T and with HCT-116 was > 10 µM (inactive) each time. Besides, the GI50 with UO-31, in the test on BT-549, in the test with MDA-MB-435, with ACHN, in the test with SF-268 and in the test with UACC-257 was > 10 µM (inactive) each time. Also, the GI50 in the test on M14, with NCI-H226, with SK-MEL-2, with SK-MEL-28, with HT-29 and in the test with HL-60 was > 10 µM (inactive) each time. The GI50 in the test with HCC 2998 and in the test on EKVX was > 10 µM (inactive) throughout.

Turning to `O=C1NC(=S)NC(=O)C1=C(O)Nc1ccccc1`, the GI50 with SW-620 was 29.2 µM (inactive); in the test on SK-MEL-5 it was 21.5 µM (inactive); in the test with IGROV-1, 32 µM (inactive); in the test with RPMI-8226 it was 27.4 µM (inactive); with Hs-578T, 20.2 µM (inactive); with HCT-116, 29.1 µM (inactive). In addition, the GI50 is 26.5 µM (inactive) in the test with UO-31; 12.1 µM (inactive) in the test on BT-549; 7.98 µM (inactive) in the test with MDA-MB-435; 23.6 µM (inactive) with ACHN; 32.7 µM (inactive) with SF-268; 38.1 µM (inactive) in the test with UACC-257. Further, the GI50 in the test on M14 was 36.2 µM (inactive); in the test on NCI-H226, 30.5 µM (inactive); in the test on SK-MEL-2, 35.9 µM (inactive); in the test with SK-MEL-28, 47.9 µM (inactive); with HT-29, 47.4 µM (inactive); in the test with HL-60, 28.1 µM (inactive). Further, the GI50 with HCC 2998 was 42.8 µM (inactive); with EKVX it was 35.7 µM (inactive).

On to `C=C1CC(COc2cc(=O)oc3ccccc23)(c2ccccc2)OC1=O` (stereo not given), for which the GI50 with SW-620 is 1.17 µM (inactive); with SK-MEL-5 it was 1.71 µM (inactive); in the test with IGROV-1, 1.51 µM (inactive); in the test with RPMI-8226 it was 0.507 µM (active); with Hs-578T it was 3.53 µM (inactive); in the test on HCT-116, 1.46 µM (inactive). For the same compound, the GI50 in the test on UO-31 was 6.64 µM (inactive); in the test on BT-549 it was 1.53 µM (inactive); in the test on MDA-MB-435, 3.7 µM (inactive); with ACHN, 2.5 µM (inactive); with SF-268, 7.33 µM (inactive); in the test on UACC-257, 1.99 µM (inactive). Also, the GI50 in the test with M14 is 1.51 µM (inactive); in the test on NCI-H226, 8.17 µM (inactive); in the test on SK-MEL-2, 1.08 µM (active); with SK-MEL-28, 2.41 µM (inactive); in the test on HT-29 it was 1.38 µM (inactive); with HL-60, 0.407 µM (active). In addition, the GI50 is 1.05 µM (active) in the test on HCC 2998 and 6.27 µM (inactive) in the test on EKVX.

For `O=C1/C(=C\c2ccccc2)CN(C(=O)CCN2CCCCC2)C/C1=C/c1ccccc1`, the GI50 in the test on SW-620 was 0.167 µM (active); in the test on SK-MEL-5 it was 1.17 µM (inactive); with IGROV-1, 1.95 µM (inactive); in the test on RPMI-8226, 0.0832 µM (active); in the test on Hs-578T it was 0.0153 µM (active); in the test on HCT-116, 0.254 µM (active). For the same compound, the GI50 in the test with UO-31 is 1.91 µM (inactive); with BT-549, 0.553 µM (active); in the test with MDA-MB-435, 2.05 µM (inactive); in the test on ACHN, 1.95 µM (inactive); with SF-268, 1.78 µM (inactive); in the test with UACC-257 it was 1.76 µM (inactive). The GI50 is 1.7 µM (inactive) in the test with M14; 6.11 µM (inactive) in the test on NCI-H226; 2 µM (inactive) in the test on SK-MEL-2; 1.97 µM (inactive) with SK-MEL-28; 0.443 µM (active) with HT-29; 0.313 µM (active) with HL-60. Further, the GI50 in the test on HCC 2998 is 1.44 µM (inactive); in the test with EKVX it was 3.71 µM (inactive).

In the case of `Nc1nc(Cl)c2ncn(Cc3cccc(CCl)c3)c2n1`, the GI50 was 3.61 µM (inactive) in the test with SW-620; 5.7 µM (inactive) in the test with SK-MEL-5; 3.31 µM (inactive) in the test with IGROV-1; 2.57 µM (inactive) in the test on RPMI-8226; 7.03 µM (inactive) in the test on Hs-578T; 2 µM (inactive) in the test with HCT-116. The GI50 with UO-31 is 13.4 µM (inactive); with BT-549, 4.09 µM (inactive); in the test with MDA-MB-435, 6.73 µM (inactive); in the test on ACHN it was 3.45 µM (inactive); in the test with SF-268, 5.09 µM (inactive); in the test on UACC-257 it was 6.01 µM (inactive). In addition, the GI50 with M14 was 3.66 µM (inactive); with NCI-H226, 6.28 µM (inactive); with SK-MEL-2, 12.1 µM (inactive); in the test with SK-MEL-28, 5.28 µM (inactive); with HT-29, 3.87 µM (inactive); in the test with HL-60, 3.95 µM (inactive). The GI50 is 3.03 µM (inactive) in the test on HCC 2998 and 8.97 µM (inactive) in the test on EKVX.

Turning to `C/C(=N\NS(=O)(=O)c1ccc(C)cc1)c1ccccn1`, the GI50 with SW-620 is > 100 µM (inactive); with SK-MEL-5, 33.4 µM (inactive); in the test on IGROV-1, 47.2 µM (inactive); with RPMI-8226 it was > 100 µM (inactive); with Hs-578T, 87.3 µM (inactive); in the test with HCT-116, 40.7 µM (inactive). In addition, the GI50 was 40.5 µM (inactive) with UO-31; > 100 µM (inactive) in the test on BT-549; > 100 µM (inactive) in the test with MDA-MB-435; 26.1 µM (inactive) in the test with ACHN; 67.3 µM (inactive) with SF-268; 81.8 µM (inactive) in the test on UACC-257. The GI50 with M14 is 34.6 µM (inactive); in the test on NCI-H226, 32.9 µM (inactive); in the test on SK-MEL-2, > 100 µM (inactive); in the test with SK-MEL-28, 98.2 µM (inactive); in the test on HT-29 it was 44.5 µM (inactive); in the test with HL-60, 34 µM (inactive). Further, the GI50 was > 100 µM (inactive) in the test with HCC 2998 and 35.5 µM (inactive) in the test with EKVX.

`CCOC(=O)C(C(=O)OCC)=C1NC2(c3ccccc3Nc3ccccc32)C(C#N)S1` (stereo not given): the GI50 in the test on SW-620 was 12.4 µM (inactive); in the test on SK-MEL-5 it was 10 µM (inactive); in the test with IGROV-1, 11.1 µM (inactive); in the test with RPMI-8226 it was 3.01 µM (inactive); with Hs-578T, 19.1 µM (inactive); in the test on HCT-116 it was 9.89 µM (inactive). Besides, the GI50 in the test on UO-31 was 12.7 µM (inactive); in the test on BT-549 it was 14.2 µM (inactive); in the test with MDA-MB-435, 7.73 µM (inactive); with ACHN it was 14.9 µM (inactive); in the test with SF-268 it was 13.5 µM (inactive); in the test on UACC-257, 12.8 µM (inactive). Besides, the GI50 is 7.46 µM (inactive) with M14; 12 µM (inactive) with NCI-H226; 11.6 µM (inactive) in the test with SK-MEL-2; 17 µM (inactive) in the test on SK-MEL-28; 4.21 µM (inactive) in the test on HT-29; 21.9 µM (inactive) with HL-60. The GI50 in the test with HCC 2998 is 4.42 µM (inactive); in the test with EKVX, 13.7 µM (inactive).

On to `C1=C\SS/C=C\SS/1`, for which the GI50 in the test on SW-620 is 33.1 µM (inactive); in the test with SK-MEL-5, 24.5 µM (inactive); in the test with IGROV-1, 16.6 µM (inactive); in the test on RPMI-8226, 28.9 µM (inactive); in the test on Hs-578T it was > 100 µM (inactive); with HCT-116, 34.4 µM (inactive). Moreover, the GI50 is 22.2 µM (inactive) with UO-31; 97.1 µM (inactive) in the test with BT-549; 57.5 µM (inactive) in the test on MDA-MB-435; 27.9 µM (inactive) in the test on ACHN; 40.5 µM (inactive) with SF-268; 38.9 µM (inactive) in the test on UACC-257. Also, the GI50 with M14 is 29.5 µM (inactive); in the test on NCI-H226, > 100 µM (inactive); in the test on SK-MEL-2, 48.4 µM (inactive); with SK-MEL-28, > 100 µM (inactive); in the test on HT-29 it was 15.6 µM (inactive); with HL-60, 7.57 µM (inactive). For the same compound, the GI50 was 53.3 µM (inactive) in the test with HCC 2998 and 46.8 µM (inactive) with EKVX.

Take `O=C1c2c(F)c(F)c(F)c(F)c2SC2=Nc3cccc4cccc(c34)N12`: the GI50 was 3.29 µM (inactive) in the test on SW-620; 14.1 µM (inactive) in the test on SK-MEL-5; 11.4 µM (inactive) with IGROV-1; 2.62 µM (inactive) in the test on RPMI-8226; 2.86 µM (inactive) in the test with Hs-578T; 4.08 µM (inactive) in the test with HCT-116. Besides, the GI50 with UO-31 was 9.16 µM (inactive); with BT-549, 10.9 µM (inactive); with MDA-MB-435 it was 4.94 µM (inactive); with ACHN it was 7.05 µM (inactive); in the test with SF-268, 3.61 µM (inactive); in the test with UACC-257, 5.19 µM (inactive). Also, the GI50 in the test with M14 is 2.92 µM (inactive); in the test on NCI-H226, 11.4 µM (inactive); with SK-MEL-2 it was 2.75 µM (inactive); with SK-MEL-28, 4.27 µM (inactive); in the test on HT-29, 7.48 µM (inactive); in the test on HL-60 it was 2.07 µM (inactive). The GI50 in the test on HCC 2998 is 13.9 µM (inactive); in the test with EKVX, 9.79 µM (inactive).

With `CC(C)(C)OC(=O)c1ccc(NCC2=C(Br)C(=O)C=CC2=O)cc1`, the GI50 with SW-620 is 16.4 µM (inactive); in the test with SK-MEL-5, 15.9 µM (inactive); in the test with IGROV-1, 24.2 µM (inactive); in the test on RPMI-8226, 10.3 µM (inactive); with Hs-578T it was 19.1 µM (inactive); in the test on HCT-116, 17.7 µM (inactive). Moreover, the GI50 in the test with UO-31 is 14 µM (inactive); in the test on BT-549, 11.4 µM (inactive); with MDA-MB-435, 18.8 µM (inactive); with ACHN it was 17.9 µM (inactive); in the test on SF-268, 19.6 µM (inactive); in the test with UACC-257, 21.7 µM (inactive). The GI50 in the test with M14 was 27.5 µM (inactive); in the test on NCI-H226 it was 22.1 µM (inactive); in the test with SK-MEL-2 it was 28.6 µM (inactive); in the test on SK-MEL-28, 19.6 µM (inactive); in the test with HT-29, 17.5 µM (inactive); with HL-60 it was 1.79 µM (inactive). The GI50 with HCC 2998 is 21.5 µM (inactive); in the test on EKVX, 19.7 µM (inactive).
